Assay results reported in US10987350B2, “Method for treating post-traumatic stress disorder” (priority 2017, dated 2021).

Experiments:
[1] = system: respiratory depression produced by opiate overdose; conditions: cited from earlier work
liver = conditions: compared with naltrexone; cited from earlier work
[2] = system: combat veterans diagnosed with post-traumatic stress disorder (PTSD); conditions: 18 combat veterans with PTSD; 1 mg twice a day up to 200 mg twice a day; cited from earlier work
[3] = compared with naltrexone; cited from earlier work
[4] = system: patient diagnosed with post-traumatic stress disorder (PTSD); assay: higher dose titration schedule of nalmefene in patients diagnosed with PTSD; assay type: in vivo, human
Experimental: One object of the subject invention is to provide improved benefit to patients diagnosed with PTSD, by employing a higher dose titration schedule for the administration of nalmefene. In accordance with the nalmefene dosing titration schedule of the subject invention, nalmefene is administered at a higher initial dose than the dosing schedule published in the pilot study, and administering nalmefene at the same, higher dose increments at regular intervals described above. Specifically, the subject invention comprises administering nalmefene orally to a PTSD patient at an initial dose of 100 milligrams per day, preferably using 50 milligram doses, twice a day, with increases every 3-4 days of 100 mg per day (50 milligrams twice a day), not to exceed 1000 mg per day (500 mg twice a day).
The subject invention comprises administering, on a dosing titration schedule, nalmefene, to a patient diagnosed with post-traumatic stress disorder (PTSD), using • a starting dose of 100 mg per day, preferably in divided doses of 50 mg twice per day; and • increasing the dose by 100-150 mg per day, every 2-5 days, up to a maximum daily dose of 1000 mg, per day.
Each increase is preferably 100 mg per day, at a divided dose of 50 mg twice per day.
An optimum dose of nalmefene, wherein PTSD symptoms are reduced or reversed, can be achieved within 2-3 weeks for individuals diagnosed with PTSD. The reduced or reversed. PTSD symptoms are based on both clinical observation of the patient and on reporting of reduced or reversed symptoms by the patient.

[5] = dosing administration schedule of the invention

C=C1CC[C@@]2(O)[C@H]3Cc4ccc(O)c5c4[C@@]2(CCN3CC2CC2)[C@H]1O5 [nalmefene]
additional benefit in opiate overdose at higher doses ([1]; intravenous doses greater than 1.5 mg): do not appear to give any greater benefit | counteracting respiratory depression produced by opiate overdose ([1]; intravenous doses): effective | dose-dependent liver toxicity (liver): no observed dose-dependent liver toxicity | core symptoms of PTSD (nightmares, intrusive thoughts, flashbacks, avoidance, dissociative amnesia, mistrust, hyper arousal) [2]: significantly improve all core symptoms of PTSD | symptom of emotional numbness [2]: significantly reduce, and in some cases remit | half-life relative to naltrexone [3]: longer half-life | adverse reaction with large dose increments ([4]; dose increments significantly greater than 50 milligrams twice a day): frequent and intense mood swings | occurrence of fluctuating mood states (anxiety, hostility and rage, depression, paranoia) with dose increases [4, 5]: successful in avoiding the occurrence of fluctuating mood states | time to stabilization of mental state of the PTSD patient [4, 5]: stabilized in a much briefer period of time | emergence of opiate withdrawal symptoms ([4]; higher dose of at least 50 mgs twice a day): unexpectedly bypassed the emergence of opiate withdrawal symptoms | time to achieve optimum dose, wherein PTSD symptoms are reduced or reversed ([4]; higher dose titration schedule, clinical observation and patient reporting): 2-3 weeks
